As usually defined, the inhibition is the drop in the measured response relative to a control, in per cent.

Read-outs that look alike come from different tables or passages of the source.

One test addresses T1, human H1 receptor (Homo sapiens, UniProt P35367).
T1 construct: expressed in transfected cells; host or cells: CHO-K1
The test can be described thus: Radioligand binding to histamine receptor H1 ([3H] Pyrilamine, CHO-K1 membranes). Conditions: for nH: histamine H1 receptors. From the text:
Biochem Biophys Res Comm. 197(3): 1601-1608, 1993]. […] Biochem Biophys Res Comm. 197(3): 1601-1608, 1993].
Pyrilamine is used as positive control.

In another test the test system is mice. The test can be described thus: Mice Training in Morris Water Maze (Scopolamine). Particulars: unitary introduction of active ingredient; figures 10-13. Format: in vivo. The procedure:
Example 17. Mice Training in Morris Water Maze. A round pool which was filled with water at 20-22°C was used. A round ceramic platform of 14cm height was placed in the pool. Animals's behavior was registered with automated computer videosystem in combination with software package of movement analysis Any-maze (Stoelting Co., US). Before testing mice suitable for training were selected. That was done by placing the platform 1cm above the water level and putting an animal on the platform for 20 seconds. Then the mouse was sunk into the water on the opposite side of the pool, allowed to find the platform and climbed it […] 60 seconds, where it was left for additional 20 seconds. After that the mouse was repeatedly immersed into water on the opposite side of the pool and allowed to look for platform. If it failed in finding the platform within 60 seconds the experimentator helped it to find the platform and climb it. If the mice could not find the platform itself in two consecutive attempts it was excluded from experiment. During the next two days the platform was placed 0.5 centimeter lower the water level. Every day the mice were given four attempts for finding the platform within 60 seconds. The time interval between the attempts was 20 seconds, during which the mice stayed on the platform. Every day before the first attempt mouse was placed on the platform for 20 seconds. The time needed for finding and climbing the platform was registered. The animals were sunk in water in 3 different places on the side of the pool opposite to platform. On each day of two-day testing 35-40 minutes before the beginning of training the mice were injected intraintestinally with physiological solution, Scopolamine or Scopolamine in combination with investigated compound. At least 8 animals were used in each group. On the third day the platform was removed and each animal was placed one time in the pool for a period of 60 seconds. The time each mouse spent in the area where the platform had been located during the previous days was registered. This time interval was regarded as a measure of effectiveness of training fulfilled during the previous two days. The testing was carried out during the day time in isolated laboratory using "white noise" at level of about 70 decibel above the human hearing threshold.

Test [1] relates to male mice of BALB/c line. The test can be described thus: Passive Avoidance of mice in the Shuttle Chamber, memory disturbed by Scopolamine. Particulars: Scopolamine 0.3 mg/kg, injected 30 minutes before training; figures 1-3. The class given is in vivo. As for the experimental part: Example 14. […] A shuttle chamber (Ugo Basile, Italy) consisted of two sections was used. […] The sections were connected through a hole which could be overlapped by a vertical door. The floor was made of transverse metal bars on which DC current impulses could be fed. Experiments were carried out in aged male mice of BALB/c line weighing 20-24 grams.
Each group consisted of at least 8 animals. Animal was placed in light section, and latent period of the first entry into dark chamber was registered. Then the vertical door was closed and the animal was punished by 0.6 mA DC current for 3 seconds. After that it was taken back to its homecage. In 22-24 hours the same animal was placed again in light section of the shuttle chamber and latent period of its first entry into dark section, the total time of its stay in light section, and the number of entries into dark section, were registered. Each monitoring lasted for 5 minutes.
Testing was carried out during the day time in isolated laboratory using white noise at level of about 70 decibel above human hearing threshold.
Scopolamine causes the disturbance of training (memory loss) that results in […].

Test [2] concerns male mice of BALB/c line. The test can be described thus: Passive Avoidance of mice in the Shuttle Chamber, memory disturbed by MK-801. Format: in vivo. Conditions: MK-801 0.1 mg/kg, injected 30 minutes before training; fig. 4-6. As for the experimental part: Example 15. […] The testing was carried out as in example 14. […] Concurrently, physiological solution of MK-801 in combination with active ingredient 1.9 (1) 1/2NDSA was injected intraintestinally to independent group of mice before training.

Test [3] relates to male mice of BALB/c line. The test can be described thus: Mice Behavior in the Elevated Plus Maze. Format: in vivo. Particulars: fig. 7-9; compared with Buspirone and Lorazepam. From the text:
Example 16. […] The length of each arm of the maze was 30cm, width is 5cm, and height of the walls was 15cm. Two opposite arms were closed from both sides and end faces by transparent walls, the other two arms were lit and opened. A mouse was placed in the center of the maze and for the next five minutes the number of entries into opened and closed arms and the time spent in each type of arms was registered. […] The animals usually avoided opened arms (the preference index is between 0.2 and 0.3). Compounds with tranquilizing action increased this index up to 0.5-0.6 or even more and reduced the number of defecations without changing the overall motion activity of the mice (the total number of their entries to the arms).

The mark [4] stands for this setting: read-out: Histamine receptors, % inhibition H1, 10 µM ligand.

T1 sequence (P35367 whole entry): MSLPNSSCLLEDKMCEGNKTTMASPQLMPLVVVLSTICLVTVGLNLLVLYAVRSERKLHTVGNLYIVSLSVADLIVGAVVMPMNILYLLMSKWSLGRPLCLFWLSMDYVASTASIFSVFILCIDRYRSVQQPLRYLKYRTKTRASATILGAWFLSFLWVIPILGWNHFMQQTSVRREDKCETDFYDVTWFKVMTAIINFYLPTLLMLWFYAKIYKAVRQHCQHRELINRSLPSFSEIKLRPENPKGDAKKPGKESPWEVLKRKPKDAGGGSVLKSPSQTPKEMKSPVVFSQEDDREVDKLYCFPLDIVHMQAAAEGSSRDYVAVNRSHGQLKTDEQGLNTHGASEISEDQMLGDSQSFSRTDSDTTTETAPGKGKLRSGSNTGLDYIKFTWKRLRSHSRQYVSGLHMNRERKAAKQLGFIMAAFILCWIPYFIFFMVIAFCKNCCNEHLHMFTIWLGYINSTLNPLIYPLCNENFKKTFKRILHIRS

With `Cc1ccc2c(c1)[C@@H]1CN(C)CCC[C@@H]1N2CCc1cccnc1` (relative stereo) [1.6.1(1)·3HCl], on human H1 receptor (setting [4]), the inhibition at 10 µM is 100%.
For `Cc1ccc2c(c1)[C@@H]1CN(C)CCC[C@@H]1N2CCc1ccc(C)nc1` (relative stereo) [1.6.1(2)·3HCl], the inhibition at 10 µM at human H1 receptor (setting [4]) stood at 102%.
For the molecule `Cc1ccc2c(c1)c1c(n2CCc2ccccn2)CCN(C)C1` [1.1.2(2-3)·2HCl], in the test on mice, the “memory disorders caused by Scopolamine (time spent in area of the platform)” value was “decreasing memory disorders”.
For the molecule `Cc1ccc2c(c1)c1c(n2CCc2ccc(C)nc2)CCN(C)C1` [1.1.2(4-2)·2HCl], at human H1 receptor (10 µM ligand, read-out: Histamine receptors, % inhibition H1), the inhibition at 10 µM is 100%. This molecule also displayed a nH at human H1 receptor of 1.01.
As to `CN1CCc2c(c3ccccc3n2Cc2ccccc2)C1` [1.9(1)·1/2NDSA, bis-(5-benzyl-2-methyl-2,3,4,5-tetrahydro-1H-pyrido[4,3-b]indole) naphthalene-1,5-disulfonate], on human H1 receptor (10 µM ligand), the “Histamine receptors, % inhibition H1” value is given as 105%. In addition, the nH at human H1 receptor amounted to 0.789. Besides, in the test with male mice of BALB/c line [1], the “enhancement of memory disturbed by Scopolamine” value is given as “nootropic action”. In addition, the “memory enhancement disturbed by MK-801” value in the test on male mice of BALB/c line [2] was “act as nootropic”. In addition, the “Anxiolytic (tranquilizing) action” value with male mice of BALB/c line [3] is reported as “exhibits anxiolytic (tranquilizing) action”.
As to `CN1CCc2c(c3ccccc3n2Cc2ccccc2)C1.Cl` [1.9(1)·HCl, 5-benzyl-2-methyl-2,3,4,5-tetrahydro-1H-pyrido[4,3-b]indole hydrochloride], the inhibition at 10 µM on human H1 receptor (setting [4]) worked out at 97%.

For the origin of these results see EP2236511A2, “LIGANDS OF ALPHA-ADRENOCEPTORS AND OF DOPAMINE, HISTAMINE, IMIDAZOLINE AND SEROTONIN RECEPTORS AND THE USE THEREOF” (priority 2007, dated 2009).
